Columns and labels:
Assay in all cases: radiometric filter-binding kinase assay, Kinase HotSpot
Settings in all cases: compound 0.5 µM; ATP 10 µM
PDGFRA (human) = PDGFRA (human) (UniProt P16234)
CDK3 CCNE1 (human) = CDK3 CCNE1 (human) (UniProt Q00526+P24864)
STK33 (human) = STK33 (human) (UniProt Q9BYT3)
NTRK3 (human) = NTRK3 (human) (UniProt Q16288)
PRKX (human) = PRKX (human) (UniProt P51817)
[1] = molecular target: JAK1 JH1 catalytic (human) (UniProt P23458)
CDK1 CCNB1 (human) = CDK1 CCNB1 (human) (UniProt P06493+P14635)
MAP3K9 (human) = MAP3K9 (human) (UniProt P80192)
TNK2 (human) = TNK2 (human) (UniProt Q07912)
NEK1 (human) = NEK1 (human) (UniProt Q96PY6)
AKT2 (human) = AKT2 (human) (UniProt P31751)
NEK9 (human) = NEK9 (human) (UniProt Q8TD19)
CHEK1 (human) = CHEK1 (human) (UniProt O14757)
MAP3K11 (human) = MAP3K11 (human) (UniProt Q16584)
MAP3K2 (human) = MAP3K2 (human) (UniProt Q9Y2U5)
MAP4K2 (human) = MAP4K2 (human) (UniProt Q12851)
SLK (human) = SLK (human) (UniProt Q9H2G2)
ADRBK1 (human) = ADRBK1 (human) (UniProt P25098)
CSK (human) = CSK (human) (UniProt P41240)
MAP2K2 (human) = MAP2K2 (human) (UniProt P36507)
HIPK3 (human) = HIPK3 (human) (UniProt Q9H422)
PAK7 (human) = PAK7 (human) (UniProt Q9P286)
MAPK12 (human) = MAPK12 (human) (UniProt P53778)
INSRR (human) = INSRR (human) (UniProt P14616)
FGR (human) = FGR (human) (UniProt P09769)
FRK (human) = FRK (human) (UniProt P42685)
IRAK4 (human) = IRAK4 (human) (UniProt Q9NWZ3)
CDK4 CCND3 (human) = CDK4 CCND3 (human) (UniProt P30281+P11802)
CDK1 CCNA2 (human) = CDK1 CCNA2 (human) (UniProt P06493+P20248)
WNK2 (human) = WNK2 (human) (UniProt Q9Y3S1)
TEK (human) = TEK (human) (UniProt Q02763)
HCK (human) = HCK (human) (UniProt P08631)
GSK3A (human) = GSK3A (human) (UniProt P49840)
PIM2 (human) = PIM2 (human) (UniProt Q9P1W9)
SRC (human) = SRC (human) (UniProt P12931)
CAMK4 (human) = CAMK4 (human) (UniProt Q16566)
CAMK2G (human) = CAMK2G (human) (UniProt Q13555)
AURKC (human) = AURKC (human) (UniProt Q9UQB9)
STK24 (human) = STK24 (human) (UniProt Q9Y6E0)
TGFBR1 (human) = TGFBR1 (human) (UniProt P36897)
PIM3 (human) = PIM3 (human) (UniProt Q86V86)
MAP3K3 (human) = MAP3K3 (human) (UniProt Q99759)
MAP3K3 (human), sequence (Q99759 whole entry, looked up): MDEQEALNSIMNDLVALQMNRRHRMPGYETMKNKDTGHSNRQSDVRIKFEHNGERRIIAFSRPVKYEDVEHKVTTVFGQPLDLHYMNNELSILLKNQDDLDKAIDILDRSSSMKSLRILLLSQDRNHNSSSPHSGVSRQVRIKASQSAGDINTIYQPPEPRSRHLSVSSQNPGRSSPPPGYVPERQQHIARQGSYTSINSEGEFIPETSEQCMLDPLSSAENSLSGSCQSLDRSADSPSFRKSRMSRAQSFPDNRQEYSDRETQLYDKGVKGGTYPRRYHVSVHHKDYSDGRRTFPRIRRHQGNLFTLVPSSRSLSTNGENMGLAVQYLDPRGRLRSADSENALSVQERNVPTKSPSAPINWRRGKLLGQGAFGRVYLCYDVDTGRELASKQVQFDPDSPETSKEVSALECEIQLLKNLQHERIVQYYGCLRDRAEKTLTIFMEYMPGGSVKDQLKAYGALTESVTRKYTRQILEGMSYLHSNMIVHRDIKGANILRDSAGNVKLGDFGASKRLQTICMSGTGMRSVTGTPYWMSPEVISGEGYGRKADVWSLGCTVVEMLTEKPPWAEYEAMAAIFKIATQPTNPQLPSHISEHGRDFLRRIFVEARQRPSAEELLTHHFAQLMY

TEK (human), sequence (Q02763 whole entry, looked up): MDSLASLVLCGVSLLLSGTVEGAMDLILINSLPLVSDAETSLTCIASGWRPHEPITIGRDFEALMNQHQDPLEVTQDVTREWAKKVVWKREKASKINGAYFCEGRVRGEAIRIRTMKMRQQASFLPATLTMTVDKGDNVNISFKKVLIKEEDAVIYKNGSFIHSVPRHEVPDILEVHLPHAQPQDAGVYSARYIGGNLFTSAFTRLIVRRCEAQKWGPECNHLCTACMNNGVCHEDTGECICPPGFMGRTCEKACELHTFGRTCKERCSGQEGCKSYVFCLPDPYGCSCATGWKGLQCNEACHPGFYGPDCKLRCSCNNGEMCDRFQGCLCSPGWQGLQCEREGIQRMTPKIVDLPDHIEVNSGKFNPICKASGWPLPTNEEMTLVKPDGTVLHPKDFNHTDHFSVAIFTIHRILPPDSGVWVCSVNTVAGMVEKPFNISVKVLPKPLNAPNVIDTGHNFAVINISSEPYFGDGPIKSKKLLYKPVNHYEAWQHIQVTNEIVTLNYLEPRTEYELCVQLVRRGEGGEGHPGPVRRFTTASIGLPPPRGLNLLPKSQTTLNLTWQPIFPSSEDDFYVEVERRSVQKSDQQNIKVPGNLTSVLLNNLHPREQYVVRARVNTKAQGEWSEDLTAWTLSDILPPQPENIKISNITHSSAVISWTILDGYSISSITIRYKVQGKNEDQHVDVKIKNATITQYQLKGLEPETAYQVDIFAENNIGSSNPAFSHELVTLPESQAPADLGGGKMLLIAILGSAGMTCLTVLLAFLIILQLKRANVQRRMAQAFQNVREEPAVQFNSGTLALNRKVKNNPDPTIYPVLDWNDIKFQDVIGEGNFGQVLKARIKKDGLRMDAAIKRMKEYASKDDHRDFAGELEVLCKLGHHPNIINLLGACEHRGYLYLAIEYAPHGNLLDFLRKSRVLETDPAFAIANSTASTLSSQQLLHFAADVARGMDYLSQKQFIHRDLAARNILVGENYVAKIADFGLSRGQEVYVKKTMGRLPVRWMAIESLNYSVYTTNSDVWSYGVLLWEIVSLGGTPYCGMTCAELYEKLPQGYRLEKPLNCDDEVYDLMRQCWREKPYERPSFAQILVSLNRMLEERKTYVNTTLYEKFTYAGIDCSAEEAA
NTRK3 (human), sequence (Q16288 whole entry, looked up): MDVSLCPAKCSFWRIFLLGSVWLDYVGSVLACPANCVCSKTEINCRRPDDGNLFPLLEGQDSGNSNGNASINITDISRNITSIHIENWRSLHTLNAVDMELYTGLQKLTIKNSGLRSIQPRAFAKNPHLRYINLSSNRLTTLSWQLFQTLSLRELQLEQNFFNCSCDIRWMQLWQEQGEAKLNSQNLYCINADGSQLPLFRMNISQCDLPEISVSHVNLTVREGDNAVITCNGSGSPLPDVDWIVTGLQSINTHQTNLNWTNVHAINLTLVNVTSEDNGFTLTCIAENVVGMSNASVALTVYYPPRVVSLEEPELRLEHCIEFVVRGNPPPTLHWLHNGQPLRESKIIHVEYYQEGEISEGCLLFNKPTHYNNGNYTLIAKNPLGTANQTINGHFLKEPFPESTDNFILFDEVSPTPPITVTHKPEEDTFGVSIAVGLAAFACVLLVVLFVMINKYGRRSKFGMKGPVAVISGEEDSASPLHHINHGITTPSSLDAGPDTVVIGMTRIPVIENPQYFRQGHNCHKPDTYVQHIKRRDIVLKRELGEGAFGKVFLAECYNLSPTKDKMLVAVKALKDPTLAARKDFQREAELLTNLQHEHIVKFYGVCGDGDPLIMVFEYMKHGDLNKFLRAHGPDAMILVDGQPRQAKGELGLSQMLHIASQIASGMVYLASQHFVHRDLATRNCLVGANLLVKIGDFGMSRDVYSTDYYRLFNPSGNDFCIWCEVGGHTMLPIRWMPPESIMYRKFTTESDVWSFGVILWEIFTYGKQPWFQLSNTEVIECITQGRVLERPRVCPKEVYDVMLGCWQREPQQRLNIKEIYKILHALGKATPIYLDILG
INSRR (human), sequence (P14616 whole entry, looked up): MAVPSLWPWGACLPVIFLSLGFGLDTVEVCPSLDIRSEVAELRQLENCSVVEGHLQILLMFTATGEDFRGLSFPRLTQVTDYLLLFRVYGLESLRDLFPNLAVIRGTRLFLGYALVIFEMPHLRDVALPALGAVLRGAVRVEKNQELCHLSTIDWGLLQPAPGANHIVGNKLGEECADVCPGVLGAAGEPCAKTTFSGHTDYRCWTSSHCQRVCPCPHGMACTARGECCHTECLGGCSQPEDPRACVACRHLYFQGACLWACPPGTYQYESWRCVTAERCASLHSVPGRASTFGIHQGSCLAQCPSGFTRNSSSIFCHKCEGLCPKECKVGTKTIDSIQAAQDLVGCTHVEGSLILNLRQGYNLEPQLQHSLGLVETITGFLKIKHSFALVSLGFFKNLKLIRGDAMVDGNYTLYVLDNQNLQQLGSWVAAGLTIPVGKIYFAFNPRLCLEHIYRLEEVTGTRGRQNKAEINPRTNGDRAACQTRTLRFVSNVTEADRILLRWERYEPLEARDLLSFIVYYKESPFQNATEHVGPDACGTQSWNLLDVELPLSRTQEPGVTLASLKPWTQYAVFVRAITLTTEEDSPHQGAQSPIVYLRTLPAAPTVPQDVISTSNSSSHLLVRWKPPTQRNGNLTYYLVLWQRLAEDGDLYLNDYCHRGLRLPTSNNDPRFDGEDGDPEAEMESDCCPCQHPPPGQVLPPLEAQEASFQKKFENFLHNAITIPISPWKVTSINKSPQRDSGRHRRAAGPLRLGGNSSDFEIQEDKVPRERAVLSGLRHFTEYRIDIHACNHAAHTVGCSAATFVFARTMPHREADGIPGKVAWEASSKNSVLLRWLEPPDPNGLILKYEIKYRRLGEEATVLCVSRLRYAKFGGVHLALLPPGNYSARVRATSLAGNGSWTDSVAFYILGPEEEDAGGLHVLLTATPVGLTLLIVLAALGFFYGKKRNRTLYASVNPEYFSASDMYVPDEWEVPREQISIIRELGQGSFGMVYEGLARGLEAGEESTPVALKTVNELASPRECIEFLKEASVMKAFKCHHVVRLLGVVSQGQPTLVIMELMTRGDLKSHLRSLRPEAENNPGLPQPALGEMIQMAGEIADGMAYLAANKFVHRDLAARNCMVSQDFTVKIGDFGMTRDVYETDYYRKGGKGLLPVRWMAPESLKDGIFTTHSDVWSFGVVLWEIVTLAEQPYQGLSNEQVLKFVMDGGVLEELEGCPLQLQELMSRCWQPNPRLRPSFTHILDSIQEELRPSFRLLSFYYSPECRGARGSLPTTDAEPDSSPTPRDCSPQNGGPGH
FGR (human), sequence (P09769 whole entry, looked up): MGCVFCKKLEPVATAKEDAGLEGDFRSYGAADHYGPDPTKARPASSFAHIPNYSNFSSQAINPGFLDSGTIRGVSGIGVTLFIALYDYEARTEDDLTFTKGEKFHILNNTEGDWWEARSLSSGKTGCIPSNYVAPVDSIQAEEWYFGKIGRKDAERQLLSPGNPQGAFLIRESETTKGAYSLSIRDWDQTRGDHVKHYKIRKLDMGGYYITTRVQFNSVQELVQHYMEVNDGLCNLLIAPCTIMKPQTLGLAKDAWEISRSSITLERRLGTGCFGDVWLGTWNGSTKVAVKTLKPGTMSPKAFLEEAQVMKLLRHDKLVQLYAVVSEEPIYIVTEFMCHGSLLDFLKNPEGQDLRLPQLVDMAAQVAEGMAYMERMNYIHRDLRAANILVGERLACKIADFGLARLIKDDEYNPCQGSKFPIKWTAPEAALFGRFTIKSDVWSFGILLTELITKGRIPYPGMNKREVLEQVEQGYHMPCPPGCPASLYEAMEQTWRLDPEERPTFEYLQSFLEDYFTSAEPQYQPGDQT
STK24 (human), sequence (Q9Y6E0 whole entry, looked up): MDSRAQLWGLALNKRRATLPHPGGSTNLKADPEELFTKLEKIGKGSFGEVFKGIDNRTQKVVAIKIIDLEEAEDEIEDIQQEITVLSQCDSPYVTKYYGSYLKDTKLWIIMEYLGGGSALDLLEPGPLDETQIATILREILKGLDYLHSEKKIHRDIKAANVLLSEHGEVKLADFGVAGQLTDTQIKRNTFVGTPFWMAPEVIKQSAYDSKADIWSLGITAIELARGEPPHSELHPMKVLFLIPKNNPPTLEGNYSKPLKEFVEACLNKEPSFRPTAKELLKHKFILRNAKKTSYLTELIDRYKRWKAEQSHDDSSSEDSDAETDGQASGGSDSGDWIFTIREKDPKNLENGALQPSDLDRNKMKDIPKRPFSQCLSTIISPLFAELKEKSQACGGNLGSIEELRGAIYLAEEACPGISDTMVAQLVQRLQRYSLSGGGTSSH

With `O=C1NC(=O)c2c1c1c3ccccc3n3c1c1c2c2ccccc2n1C1CCC3O1` the residual activity (PDGFRA (human)) was 32.8%, the residual activity (CDK3 CCNE1 (human)) was 71.5% and the residual activity (STK33 (human)) was 12.7%. The residual activity (NTRK3 (human)) was 1.41%, the residual activity (PRKX (human)) was 17.5% and the residual activity [1] was 22.2%. For the same compound, the residual activity (CDK1 CCNB1 (human)) was 29.9%, the residual activity (MAP3K9 (human)) was 8.72% and the residual activity (TNK2 (human)) was 2.39%. It also gave a residual activity (NEK1 (human)) of 50.9%, a residual activity (AKT2 (human)) of 48.5% and a residual activity (NEK9 (human)) of 23.4%. For the same compound, the residual activity (CHEK1 (human)) was 3.63%, the residual activity (MAP3K11 (human)) was 1.37% and the residual activity (MAP3K2 (human)) was 14%. The residual activity (MAP4K2 (human)) was 3.75%, the residual activity (SLK (human)) was 26% and the residual activity (ADRBK1 (human)) was 97.9%. It also gave a residual activity (CSK (human)) of 79.7%, a residual activity (MAP2K2 (human)) of 87.9% and a residual activity (HIPK3 (human)) of 49.9%. It also gave a residual activity (PAK7 (human)) of 64.7%, a residual activity (MAPK12 (human)) of 113% and a residual activity (INSRR (human)) of 7.16%. The residual activity (FGR (human)) was 30.9%, the residual activity (FRK (human)) was 102% and the residual activity (IRAK4 (human)) was 14%. It also gave a residual activity (CDK4 CCND3 (human)) of 22.2%, a residual activity (CDK1 CCNA2 (human)) of 61.7% and a residual activity (WNK2 (human)) of 93.6%. It also gave a residual activity (TEK (human)) of 94.1%, a residual activity (HCK (human)) of 24.8% and a residual activity (GSK3A (human)) of 2.19%. It also gave a residual activity (PIM2 (human)) of 1.86%, a residual activity (SRC (human)) of 69.5% and a residual activity (CAMK4 (human)) of 98.7%. It also gave a residual activity (CAMK2G (human)) of 8.36%, a residual activity (AURKC (human)) of 36.5% and a residual activity (STK24 (human)) of 14.3%. It also gave a residual activity (TGFBR1 (human)) of 110%, a residual activity (PIM3 (human)) of 0.238% and a residual activity (MAP3K3 (human)) of 18.4%.

In the case of `O=C1Nc2ccc(Cl)cc2/C1=C/c1cc(Cl)c(O)c(Cl)c1`, the residual activity (PDGFRA (human)) is reported as 70.3%, the residual activity (CDK3 CCNE1 (human)) is reported as 85.4% and the residual activity (STK33 (human)) is reported as 85.1%. It also gave a residual activity (NTRK3 (human)) of 44.8%, a residual activity (PRKX (human)) of 92.1% and a residual activity [1] of 103%. For the same compound, the residual activity (CDK1 CCNB1 (human)) was 96.3%, the residual activity (MAP3K9 (human)) was 102% and the residual activity (TNK2 (human)) was 32.4%. For the same compound, the residual activity (NEK1 (human)) was 81.5%, the residual activity (AKT2 (human)) was 93.9% and the residual activity (NEK9 (human)) was 103%. For the same compound, the residual activity (CHEK1 (human)) was 86.4%, the residual activity (MAP3K11 (human)) was 60.4% and the residual activity (MAP3K2 (human)) was 95.7%. The residual activity (MAP4K2 (human)) was 62.6%, the residual activity (SLK (human)) was 95.3% and the residual activity (ADRBK1 (human)) was 93.4%. The residual activity (CSK (human)) was 85%, the residual activity (MAP2K2 (human)) was 82% and the residual activity (HIPK3 (human)) was 91.5%. It also gave a residual activity (PAK7 (human)) of 91.5%, a residual activity (MAPK12 (human)) of 90.5% and a residual activity (INSRR (human)) of 100%. For the same compound, the residual activity (FGR (human)) was 84.8%, the residual activity (FRK (human)) was 70.3% and the residual activity (IRAK4 (human)) was 101%. It also gave a residual activity (CDK4 CCND3 (human)) of 94.8%, a residual activity (CDK1 CCNA2 (human)) of 91.9% and a residual activity (WNK2 (human)) of 115%. The residual activity (TEK (human)) was 93%, the residual activity (HCK (human)) was 83.2% and the residual activity (GSK3A (human)) was 76.1%. The residual activity (PIM2 (human)) was 48.6%, the residual activity (SRC (human)) was 96.2% and the residual activity (CAMK4 (human)) was 96.8%. For the same compound, the residual activity (CAMK2G (human)) was 119%, the residual activity (AURKC (human)) was 78.6% and the residual activity (STK24 (human)) was 104%. The residual activity (TGFBR1 (human)) was 102%, the residual activity (PIM3 (human)) was 14.5% and the residual activity (MAP3K3 (human)) was 101%.

`CNc1cc2c(Nc3cccc(Br)c3)ncnc2cn1` was tested, and the residual activity (PDGFRA (human)) was 99%, the residual activity (CDK3 CCNE1 (human)) was 80.2% and the residual activity (STK33 (human)) was 95.2%. The residual activity (NTRK3 (human)) was 72.7%, the residual activity (PRKX (human)) was 97.1% and the residual activity [1] was 79.9%. It also gave a residual activity (CDK1 CCNB1 (human)) of 104%, a residual activity (MAP3K9 (human)) of 94.4% and a residual activity (TNK2 (human)) of 30.3%. It also gave a residual activity (NEK1 (human)) of 70.3%, a residual activity (AKT2 (human)) of 99.6% and a residual activity (NEK9 (human)) of 99.4%. The residual activity (CHEK1 (human)) was 108%, the residual activity (MAP3K11 (human)) was 96.9% and the residual activity (MAP3K2 (human)) was 74.9%. For the same compound, the residual activity (MAP4K2 (human)) was 74.8%, the residual activity (SLK (human)) was 63% and the residual activity (ADRBK1 (human)) was 97%. The residual activity (CSK (human)) was 82%, the residual activity (MAP2K2 (human)) was 90.4% and the residual activity (HIPK3 (human)) was 94.1%. For the same compound, the residual activity (PAK7 (human)) was 90.8%, the residual activity (MAPK12 (human)) was 93.6% and the residual activity (INSRR (human)) was 98.2%. For the same compound, the residual activity (FGR (human)) was 88.3%, the residual activity (FRK (human)) was 91.2% and the residual activity (IRAK4 (human)) was 82.6%. It also gave a residual activity (CDK4 CCND3 (human)) of 120%, a residual activity (CDK1 CCNA2 (human)) of 86.5% and a residual activity (WNK2 (human)) of 114%. For the same compound, the residual activity (TEK (human)) was 87.9%, the residual activity (HCK (human)) was 84.5% and the residual activity (GSK3A (human)) was 95.9%. The residual activity (PIM2 (human)) was 102%, the residual activity (SRC (human)) was 94.6% and the residual activity (CAMK4 (human)) was 104%. For the same compound, the residual activity (CAMK2G (human)) was 105%, the residual activity (AURKC (human)) was 85.9% and the residual activity (STK24 (human)) was 101%. The residual activity (TGFBR1 (human)) was 97.7%, the residual activity (PIM3 (human)) was 55.2% and the residual activity (MAP3K3 (human)) was 73.3%.

From the kinase profiling compilation of Christmann-Franck et al. (2016)
